{"source": "patent EP4620468A1", "about": "“BUTASELEN-CYCLODEXTRIN INCLUSION COMPLEX, PHARMACEUTICAL COMPOSITION, METHOD FOR PREPARING SAME, AND USE THEREOF” (Shanghai Yuanxi Medicine Corp., priority 2022, dated 2024)", "key": {"[1]": {"assay": "Body weight and clinical observation of NPG mice during administration", "assay_type": "in vivo", "settings": "BS 30 and 90 mg/kg, intraperitoneal injection", "procedure": "All animals were observed once a day during the experiment period. The observation content included death or dying, feces, a feeding status, a mental status, and behavioral activities, etc. If any abnormal situation was found, it was recorded in time. All animals were weighed once before grouping, three times per week after administration, and once before euthanasia.\nNo clinical abnormal symptoms or animal deaths due to drug toxicity were observed during this experiment."}, "[2]": {"assay": "Distribution of BS in brain tissue of ICR mice after intraperitoneal injection, ICP-MS", "assay_type": "in vivo", "settings": "female, mouse, ip, intraperitoneal injection 90 mg/kg", "procedure": "The distribution of BS in mouse brain tissue was examined as follows: Brain glioma is located in the skull and has a special lesion location. Thus, it is critical whether a drug can cross the blood-brain barrier and act at the lesion site. In order to detect whether BS can reach brain tissue through the blood-brain barrier, female six-week-old ICR mice were selected for the study. The mice were intraperitoneally injected with 90 mg/kg of BS, and brain tissues before administration and brain tissues at 0.5 h, 1 h, 2 h and 3 h after administration were taken for ICP-MS detection. The BS content per gram of brain tissue was calculated by detecting the selenium content per gram of brain tissue."}, "[3]": {"assay": "Distribution of BS in brain tissue of U87 nude mice by ICP-MS (selenium content)", "assay_type": "in vivo", "settings": "Balb/c nude, mouse, BS 30 mg/kg, injection dosage form (intraperitoneal), after the experiment, calculated from selenium content", "procedure": "The general condition of the animals and the time of tumor occurrence were recorded daily during the experiment, a long diameter and a short diameter of tumors in the mice were recorded daily, and a tumor volume was calculated according to a formula: long diameter×(short diameter)^2×0.5236, and a body weight of the animals were measured every 3 days. After 18 days of administration, anesthesia was performed with chloral hydrate, and eyeballs were removed for blood collection. The mice were sacrificed, tumors, hearts, livers, spleens, lungs, kidneys, thymuses, whole brains, and intestines were rapidly isolated, blood stains were washed away with ice saline, the tumors, hearts, livers, spleens, lungs, kidneys, thymuses, whole brains, and intestines were wiped to be dry with filter paper, whether there were lesions in internal organs of the animals were observed, and the tumors, hearts, livers, spleens, lungs, kidneys, thymuses, whole brains, and intestines were weighed. […] Distribution of the Se content in brain tissue was detected by Inductively coupled plasma-Mass Spectrometry (ICP-MS).\nBrain tissues of the mice after the experiment of BS+TMZ gavage (90+10 mg/kg) and BS intraperitoneal injection (30 mg/kg) were taken and detected by ICP-MS. By detecting the selenium content per gram of brain tissue, the BS content per gram of brain tissue was calculated. […]"}, "[4]": {"test_system": "U87 brain glioma subcutaneous model", "assay": "Administration by injection (intraperitoneal) experiment of U87 brain glioma subcutaneous model in Balb/c nude mice", "assay_type": "in vivo", "text": "After 2 days of animal acclimation, qualified animals were retained and randomized into 5 groups, with 6 animals in each group of a control group, a TMZ group, and a BS group. There were 5 animals in each group of the BS+TMZ treatment group and the BS+TMZ prevention group. Mice in the BS group were inoculated subcutaneously in right axillas with U87 cells at 2×10^6/mouse. Administration was started to be performed 14 days after inoculation, which was day 0 of treatment. Administration was performed for a total of 18 days.\nA drug treatment regimen was as follows: Blank control group (0.9% NaCl, i.p., q.d.); TMZ group (10 mg/kg, i.p., qd.); BS group (30 mg/kg, i.p., q.d.); BS+TMZ treatment group (10 mg/kg of TMZ, i.p., qd., and 90 mg/kg of BS, i.g., q.d.); BS+TMZ prevention group (10 mg/kg of TMZ, i.p., qd., and 90 mg/kg of BS, i.g., q.d.). […] were injected into tail veins.\n(§1) The general condition of the animals and the time of tumor occurrence were recorded daily during the experiment, a long diameter and a short diameter of tumors in the mice were recorded daily, and a tumor volume was calculated according to a formula: long diameter×(short diameter)^2×0.5236, and a body weight of the animals were measured every 3 days. After 18 days of administration, anesthesia was performed with chloral hydrate, and eyeballs were removed for blood collection. The mice were sacrificed, tumors, hearts, livers, spleens, lungs, kidneys, thymuses, whole brains, and intestines were rapidly isolated, blood stains were washed away with ice saline, the tumors, hearts, livers, spleens, lungs, kidneys, thymuses, whole brains, and intestines were wiped to be dry with filter paper, whether there were lesions in internal organs of the animals were observed, and the tumors, hearts, livers, spleens, lungs, kidneys, thymuses, whole brains, and intestines were weighed. A portion of tumor tissue was taken and stored in liquid nitrogen for RNA and protein extraction. Another portion of tumor tissue was placed in a tissue fixative solution for fixation. Distribution of the Se content in brain tissue was detected by Inductively coupled plasma-Mass Spectrometry (ICP-MS).\nFemale six-week-old Balb/c Nude mice were selected to establish an animal model and inoculated subcutaneously with U87 human-derived glioma cells at 2×10^6/mouse. Administration was started to be performed on day 14 after inoculation, and was continued to be performed for 18 days.\nTo compare the difference in efficacy between oral gavage administration and intraperitoneal injection administration, the control group, the TMZ group (10 mg/Kg) and the BS group (30 mg/Kg) were administered intraperitoneally once a day in this round of experiment. The mice in the control group were given 0.9% NaCl.\nTo compare the therapeutic efficacy and preventive efficacy of the combined application of BS and TMZ, combined administration groups were set in this round of experiment: a BS+TMZ treatment group (90 mg/Kg of BS&10 mg/Kg of TMZ) and a BS+TMZ prevention group (90 mg/Kg of B S& 10 mg/Kg of TMZ). The B S+TMZ treatment group was abbreviated as a BS+TMZ (A) group, and tumors with a volume of more than 20 mm^3 were normally formed in the mice on day 14 after U87 inoculation, and the administration was started to be performed to observe the efficacy of the combined use on inhibiting tumor proliferation. The BS+TMZ prevention group is abbreviated as a BS+TMZ (B) group, and tumors with a volume of less than 20 mm^3 were formed in the mice on day 14 after U87 inoculation, and the administration was started to observe the efficacy of the combined use on the prevention of tumor formation. The mice in the combined groups were administered by single daily oral gavage. The start time of administration was Day 1, a second day of administration was Day 2, and so on."}, "[5]": {"test_system": "U87 brain glioma subcutaneous model", "assay": "Gavage administration experiment of U87 brain glioma subcutaneous model in Balb/c nude mice", "assay_type": "in vivo", "settings": "BS 90 mg/kg, oral administration (i.g., q.d.), 11 days", "procedure": "After 2 days of animal acclimation, qualified animals were retained and randomized into 6 groups, with 7 animals in each group. Mice were inoculated subcutaneously in right axillas with U87 cells at 2×10^6/mouse. Administration was started to be performed 12 days after inoculation, which was day 0 of treatment. Administration was performed for a total of 11 days.\nA drug treatment regimen was as follows: Blank control group (0.5% CMC-Na, i.g., q.d.); TMZ group (30 mg/kg, i.g., q.d.); BSL group (10 mg/kg, i.g., q.d.); BSM group (90 mg/kg, i.g., q.d.); BSH group (180 mg/kg, i.g., q.d.); and BSM+TMZ group (30 mg/kg of TMZ, 90 mg/kg of BS, i.g., q.d.).\nThe general condition of the animals and the time of tumor occurrence were recorded daily during the experiment, a long diameter and a short diameter of tumors in the mice were recorded daily, and a tumor volume was calculated according to a formula: long diameter×(short diameter)^2×0.5236, and a body weight of the animals were measured every 3 days. After 18 days of administration, anesthesia was performed with chloral hydrate, and eyeballs were removed for blood collection. […] Distribution of the Se content in brain tissue was detected by Inductively coupled plasma-Mass Spectrometry (ICP-MS)."}, "[6]": {"assay": "Solubility of butaselen in water", "assay_type": "physicochemical"}, "[7]": {"assay": "Body weight and general condition of U87 tumor-bearing nude mice during administration", "assay_type": "in vivo, Balb/c nude mice", "procedure": "as §1"}, "[8]": {"test_system": "high-grade astrocytoma in human spinal cord", "assay": "Subcutaneous patient-derived xenograft (PDX) mouse model of high-grade astrocytoma in human spinal cord", "assay_type": "in vivo, NPG mice", "settings": "for tumor sizes at the end of the experiment: no unit at the values (tumor volume formula in mm^3), in mm³; for tumor volume inhibition rate: end of experiment", "procedure": "• 1) Grouping of animals: the animals were subcutaneously inoculated with tumor tissue pieces, and after tumors were formed in the animals, the animals were grouped based on a principle of a similar mean tumor volume; • 2) Mode of administration: intraperitoneal injection of BS and TMZ (i.p., q.d.×17 days); • 3) Detection indexes: mouse body weight and subcutaneous tumor volume.\nBS injections, with a drug content being 30 mg of BS and 90 mg of BS; and 1 mg of TMZ was weighed and dissolved in 1 ml of 0.5% CMC-Na and the obtained solution was uniformly dispersed by an ultrasound-assisted manner to obtain a TMZ drug solution, which was prepared immediately before use each time.\n• Animal species: NPG mice, Animal grade: SPF grade, and Sex and number: female, 32 • Animal weight range: 20-25 g, Animal age range: 5-6 weeks old, and Animal source: Beijing Vitalstar Biotechnology Co., Ltd.\nThe animals were randomly divided into four groups according to Table 5, with 8 animals in each group of a control group, a BSL group, a BSH group and a TMZ group.\nTumor masses (2-3 mm^3) of high-grade astrocytoma in a human spinal cord were prepared and inoculated in right axillas of NPG mice, and after inoculation, a mouse status was routinely observed and the tumor size was measured. Screening was performed according to the tumor volume, animals with a tumor volume of 450 mm^3 were selected for the experiment, and those with an excessive tumor volume and no tumor formation were not selected. A total of 32 suitable tumor-bearing animals were screened for the experiment, and were divided into 4 experimental groups, with 8 mice in each group. The day of first administration was recorded as D1, a second day of administration was recorded as D2, and so on. All animals were administered through single daily intraperitoneal injection for 24 consecutive days.\nDuring the experiment, a long diameter and a short diameter of the tumors in all the animals were measured daily. And a tumor volume (mm^3) was calculated and a formula was as follows: Tumor volume=0.5236×long diameter×short diameter×short diameter."}, "[9]": {"settings": "BS 30 mg/kg, intraperitoneal injection, q.d., 18 days, end of experiment"}, "[10]": {"settings": "BS 30 mg/kg, intraperitoneal, end of experiment"}, "[11]": {"settings": "TMZ 10 mg/kg, intraperitoneal, experiment in this group ended early on day 12"}}}
{"molecule": "O=c1c2ccccc2[se]n1CCCCn1[se]c2ccccc2c1=O", "note": "[BS, butaselen]", "values": [{"measurement": "toxic and side effects on the NPG mice", "setting": "[1]", "value": "no obvious toxic and side effects"}, {"measurement": "weight loss", "setting": "[1]; NPG mice", "value": "no significant weight loss"}, {"measurement": "concentration at 0.5 h", "setting": "[2]; 0.5 h after administration", "value": 439, "unit": "ng/g"}, {"measurement": "concentration at 1 h", "setting": "[2]; 1 h after administration", "value": 372, "unit": "ng/g"}, {"measurement": "concentration at 2 h", "setting": "[2]; 2 h after administration (peak)", "value": 528, "unit": "ng/g"}, {"measurement": "concentration at 3 h", "setting": "[2]; 3 h after administration", "value": 419, "unit": "ng/g"}, {"measurement": "concentration at 18 days", "setting": "[3]", "value": 121, "unit": "ng/g"}, {"measurement": "Tumor volume (mm^3)", "setting": "[4]; [9]", "value": "105.18±66.62", "unit": "mm^3"}, {"measurement": "Volume inhibition rate (%)", "setting": "[4]; [9]", "value": 81.12, "unit": "%"}, {"measurement": "Tumor weight", "setting": "[4]; [10]", "value": "0.13 ± 0.08", "unit": "g"}, {"measurement": "Weight inhibition rate (%)", "setting": "[4]; [10]", "value": 66.67, "unit": "%"}, {"measurement": "Tumor volume (mm^3)", "setting": "[5]", "value": "122.05±33.15", "unit": "mm^3"}, {"measurement": "Volume inhibition rate (%)", "setting": "[5]", "value": 78.87, "unit": "%"}, {"measurement": "solubility", "setting": "[6]", "value": "~0.15", "unit": "µg/mL"}, {"measurement": "toxic and side effects on tumor-bearing nude mice", "setting": "[7]; BS group, BS+TMZ (A) and (B) groups, normal diet, activities, mental status", "value": "no obvious toxic and side effects"}, {"measurement": "tumor sizes at the end of the experiment", "setting": "[8]; BS 30 mg/kg i.p. q.d.", "value": "4593.83±2725.69"}, {"measurement": "tumor sizes at the end of the experiment", "setting": "[8]; BS 90 mg/kg i.p. q.d.", "value": "2999.76±2191.03"}, {"measurement": "tumor volume inhibition rate", "setting": "[8]; high-dose BS group (90 mg/kg i.p.)", "value": 35.19, "unit": "%"}, {"measurement": "tumor volume inhibition rate", "setting": "[8]; low-dose BS group (30 mg/kg i.p.)", "value": -10.54, "unit": "%"}]}
{"molecule": "Cn1nnc2c(C(N)=O)ncn2c1=O", "note": "[TMZ, temozolomide, reference compound]", "values": [{"measurement": "Tumor volume (mm^3)", "setting": "[4]; [11]", "value": "343.23±245.20", "unit": "mm^3"}, {"measurement": "Tumor weight", "setting": "[4]; [11]", "value": "0.19 ± 0.08", "unit": "g"}, {"measurement": "body weight of the mice", "setting": "[7]; TMZ group (30 mg/Kg as printed), U87 tumor-bearing nude mice, group ended on day 12", "value": "significantly decreased"}, {"measurement": "tumor sizes at the end of the experiment", "setting": "[8]; TMZ 5 mg/kg i.p. q.d.", "value": "2693.29±1682.23"}, {"measurement": "tumor volume inhibition rate", "setting": "[8]; TMZ group (5 mg/kg i.p.)", "value": 27.82, "unit": "%"}]}
